{"source": "paper PMC10489980", "about": "“Design of Potent and Salt-Insensitive Antimicrobial Branched Peptides” (Polymers, 2023)", "type_in_all_cases": "cell-based", "key": {"[1]": {"test_system": "Staphylococcus aureus 29213", "text": "(§1) Ten organisms obtained from the American Type Culture Collection (ATCC; Rockville, MD) were used for antimicrobial assays. Four Gram-negative bacteria included Escherichia coli ATCC 25922, Pseudomonas aeruginosa ATCC 27853, Klebsiella oxytoca ATCC 49131, and Proteus vulgaris ATCC 49132. The three Gram-positive bacteria were Staphylococcus aureus 29213, Micrococcus luteus ATCC 49,732, and Enterococcus faecalis ATCC 29212. The three fungi were Candida albicans ATCC 37092, Candida kefyr ATCC 37095, and Candida tropicalis ATCC 37097. The clinical isolates were obtained from Singapore General Hospital (SGH). They are Enterococcus faecium, Staphylococcus aureus, Klebsiella pneumoniae, Acinetobacter baumannii, Pseudomonas aeruginosa, and Enterobacter species. The strains were incubated in trypticase soy broth (TSB), which was prepared in double distilled water and autoclaved for sterilization. TSB was purchased from Becton-Dickinson (Cockeysville, MD, USA).\n(§2) Antimicrobial Assays. A sensitive and reproducible two-stage radial diffusion antimicrobial assay of Lehrer et al. was employed. A 1–4 × 10^6 colony-forming unit/mL of the test organism was mixed with 10 mL of molten underlay gel solution and poured into Petri dishes to form a uniform layer. The gel solution consisted of 10 mM sodium phosphate buffer, 0.03% TSB, and 0.02% Tween-20, with the addition of 100 mM NaCl in the case of high-salt conditions. Upon gel solidification, gel wells were made by a 3-mm diameter template in an evenly spaced array. A 5 µL aliquot of a serial half-log dilution of test peptides at seven concentrations was added to each well after removal of gel plugs. The dishes were incubated at 37 °C for 3 h to allow peptide diffusion into the underlay gels. Gels were overlaid with 10 mL of 1% agarose in 6% TSB (wt/vol). After additional incubation at 37 °C for 16–24 h, the diameter of the clear zone surrounding the wells (colony-free) was measured under a microscope. Antimicrobial activities were expressed in units (0.1 mm = 1 unit), and the MICs (in µM) were determined from the x-intercepts of the dose-response curves. Experiments were performed in triplicates."}, "[2]": {"test_system": "Proteus vulgaris ATCC 49132", "text": "as §1, §2"}, "[3]": {"test_system": "Candida albicans ATCC 37092", "text": "as §1, §2"}, "[4]": {"test_system": "Escherichia coli ATCC 25922", "text": "as §1, §2"}, "[5]": {"test_system": "Candida tropicalis ATCC 37097", "text": "as §1, §2"}, "Candida kefyr ATCC 37095": {"test_system": "Candida kefyr ATCC 37095", "text": "as §1, §2"}, "[6]": {"test_system": "Pseudomonas aeruginosa ATCC 27853", "text": "as §1, §2"}, "[7]": {"test_system": "Klebsiella oxytoca ATCC 49131", "text": "as §1, §2"}, "[8]": {"test_system": "Micrococcus luteus ATCC 49,732", "text": "as §1, §2"}, "[9]": {"test_system": "Enterococcus faecalis ATCC 29212", "text": "as §1, §2"}}, "note": "Read-outs that look alike come from different tables or passages of the source. Residues, ends and D or L forms follow the SMILES beside them."}
{"smiles": "CC(C)C[C@H](NC(=O)[C@@H](N)CCCNC(=N)N)C(=O)N[C@@H](Cc1ccc(O)cc1)C(=O)N[C@@H](CCCNC(=N)N)C(=O)NCCCC[C@H](NC(=O)[C@H](CCCCNC(=O)[C@H](CCCNC(=N)N)NC(=O)[C@H](Cc1ccc(O)cc1)NC(=O)[C@H](CC(C)C)NC(=O)[C@@H](N)CCCNC(=N)N)NC(=O)[C@H](CCCCNC(=O)[C@H](CCCNC(=N)N)NC(=O)[C@H](Cc1ccc(O)cc1)NC(=O)[C@H](CC(C)C)NC(=O)[C@@H](N)CCCNC(=N)N)NC(=O)[C@H](CCCCNC(=O)[C@H](CCCNC(=N)N)NC(=O)[C@H](Cc1ccc(O)cc1)NC(=O)[C@H](CC(C)C)NC(=O)[C@@H](N)CCCNC(=N)N)NC(=O)OCC1c2ccccc2-c2ccccc21)C(N)=O", "note": "[K4R]", "values": [{"measurement": "MIC, S. aureus, H-Salt", "setting": "[1]; strain 29213, radial diffusion assay, high-salt (100 mM NaCl), triplicates", "result": 0.9, "unit": "µM"}, {"measurement": "MIC, S. aureus, L-Salt", "setting": "[1]; strain 29213, radial diffusion assay, low-salt (without NaCl), triplicates", "result": 0.8, "unit": "µM"}, {"measurement": "MIC, P. vulgaris, H-Salt", "setting": "[2]; ATCC 49132, radial diffusion assay, high-salt (100 mM NaCl), triplicates", "result": 1.0, "unit": "µM"}, {"measurement": "MIC, P. vulgaris, L-Salt", "setting": "[2]; ATCC 49132, radial diffusion assay, low-salt (without NaCl), triplicates", "result": 1.1, "unit": "µM"}, {"measurement": "MIC, C. albicans, H-Salt", "setting": "[3]; ATCC 37092, radial diffusion assay, high-salt (100 mM NaCl), triplicates", "result": 0.8, "unit": "µM"}, {"measurement": "MIC, C. albicans, L-Salt", "setting": "[3]; ATCC 37092, radial diffusion assay, low-salt (without NaCl), triplicates", "result": 0.7, "unit": "µM"}, {"measurement": "MIC, E. coli, H-Salt", "setting": "[4]; ATCC 25922, two-stage radial diffusion assay, high-salt (underlay gel 10 mM sodium phosphate, 0.03% TSB, 0.02% Tween-20, with 100 mM NaCl), 37 °C, x-intercept of dose-response curve, triplicates", "result": 0.7, "unit": "µM"}, {"measurement": "MIC, E. coli, L-Salt", "setting": "[4]; ATCC 25922, two-stage radial diffusion assay, low-salt (underlay gel 10 mM sodium phosphate, 0.03% TSB, 0.02% Tween-20, without NaCl), 37 °C, x-intercept of dose-response curve, triplicates", "result": 0.7, "unit": "µM"}, {"measurement": "MIC, C. tropicalis, H-Salt", "setting": "[5]; ATCC 37097, radial diffusion assay, high-salt (100 mM NaCl), triplicates", "result": 1.2, "unit": "µM"}, {"measurement": "MIC, C. tropicalis, L-Salt", "setting": "[5]; ATCC 37097, radial diffusion assay, low-salt (without NaCl), triplicates", "result": 1.5, "unit": "µM"}, {"measurement": "MIC, C. kefyr, H-Salt", "setting": "Candida kefyr ATCC 37095; ATCC 37095, radial diffusion assay, high-salt (100 mM NaCl), triplicates", "result": 0.9, "unit": "µM"}, {"measurement": "MIC, C. kefyr, L-Salt", "setting": "Candida kefyr ATCC 37095; ATCC 37095, radial diffusion assay, low-salt (without NaCl), triplicates", "result": 0.9, "unit": "µM"}, {"measurement": "MIC, P. aeruginosa, H-Salt", "setting": "[6]; ATCC 27853, radial diffusion assay, high-salt (100 mM NaCl), triplicates", "result": 0.9, "unit": "µM"}, {"measurement": "MIC, P. aeruginosa, L-Salt", "setting": "[6]; ATCC 27853, radial diffusion assay, low-salt (without NaCl), triplicates", "result": 0.8, "unit": "µM"}, {"measurement": "MIC, K. oxytoca, H-Salt", "setting": "[7]; ATCC 49131, radial diffusion assay, high-salt (100 mM NaCl), triplicates", "result": 1.2, "unit": "µM"}, {"measurement": "MIC, K. oxytoca, L-Salt", "setting": "[7]; ATCC 49131, radial diffusion assay, low-salt (without NaCl), triplicates", "result": 1.3, "unit": "µM"}, {"measurement": "MIC, M. luteus, H-Salt", "setting": "[8]; ATCC 49,732, radial diffusion assay, high-salt (100 mM NaCl), triplicates", "result": 1.0, "unit": "µM"}, {"measurement": "MIC, M. luteus, L-Salt", "setting": "[8]; ATCC 49,732, radial diffusion assay, low-salt (without NaCl), triplicates", "result": 0.6, "unit": "µM"}, {"measurement": "MIC, E. faecalis, H-Salt", "setting": "[9]; ATCC 29212, radial diffusion assay, high-salt (100 mM NaCl), triplicates", "result": 1.5, "unit": "µM"}, {"measurement": "MIC, E. faecalis, L-Salt", "setting": "[9]; ATCC 29212, radial diffusion assay, low-salt (without NaCl), triplicates", "result": 0.5, "unit": "µM"}]}
{"smiles": "CC(=O)NCCC[C@H](NC(=O)[C@H](CCCNC(=N)N)NC(=O)[C@H](Cc1ccc(O)cc1)NC(=O)[C@H](CC(C)C)NC(=O)[C@@H](N)CCCNC(=N)N)C(=O)NCCC[C@H](NC(=O)[C@H](CCCNC(=N)N)NC(=O)[C@H](Cc1ccc(O)cc1)NC(=O)[C@H](CC(C)C)NC(=O)[C@@H](N)CCCNC(=N)N)C(=O)NCCC[C@H](NC(=O)[C@H](CCCNC(=N)N)NC(=O)[C@H](Cc1ccc(O)cc1)NC(=O)[C@H](CC(C)C)NC(=O)[C@@H](N)CCCNC(=N)N)C(N)=O", "note": "[iO3R] (HELM PEPTIDE1{R.L.Y.R.[Orn]}|PEPTIDE2{[ac]}|PEPTIDE3{R.L.Y.R.[Orn]}|PEPTIDE4{R.L.Y.R.[Orn].[am]}$PEPTIDE1,PEPTIDE2,5:R3-1:R2|PEPTIDE1,PEPTIDE3,5:R2-5:R3|PEPTIDE3,PEPTIDE4,5:R2-5:R3$$$V2.0)", "values": [{"measurement": "MIC, S. aureus, H-Salt", "setting": "[1]; 29213, 3 h", "result": 56.2, "unit": "µM"}, {"measurement": "MIC, S. aureus, L-Salt", "setting": "[1]; 29213, 3 h", "result": 17.2, "unit": "µM"}, {"measurement": "MIC, P. vulgaris, H-Salt", "setting": "[2]; ATCC 49132, 3 h", "result": 27.6, "unit": "µM"}, {"measurement": "MIC, P. vulgaris, L-Salt", "setting": "[2]; ATCC 49132, 3 h", "result": 8.3, "unit": "µM"}, {"measurement": "MIC, C. albicans, H-Salt", "setting": "[3]; ATCC 37092, 3 h", "result": 12.4, "unit": "µM"}, {"measurement": "MIC, C. albicans, L-Salt", "setting": "[3]; ATCC 37092, 3 h", "result": 4.8, "unit": "µM"}, {"measurement": "MIC, E. coli, H-Salt", "setting": "[4]; ATCC 25922, 3 h", "result": 12.8, "unit": "µM"}, {"measurement": "MIC, E. coli, L-Salt", "setting": "[4]; ATCC 25922, 3 h", "result": 1.3, "unit": "µM"}, {"measurement": "MIC, C. tropicalis, H-Salt", "setting": "[5]; ATCC 37097, 3 h", "result": 2.3, "unit": "µM"}, {"measurement": "MIC, C. tropicalis, L-Salt", "setting": "[5]; ATCC 37097, 3 h", "result": 2.8, "unit": "µM"}, {"measurement": "MIC, C. kefyr, H-Salt", "setting": "Candida kefyr ATCC 37095; ATCC 37095, 3 h", "result": 2.0, "unit": "µM"}, {"measurement": "MIC, C. kefyr, L-Salt", "setting": "Candida kefyr ATCC 37095; ATCC 37095, 3 h", "result": 1.3, "unit": "µM"}, {"measurement": "MIC, P. aeruginosa, H-Salt", "setting": "[6]; ATCC 27853, 3 h", "result": 3.2, "unit": "µM"}, {"measurement": "MIC, P. aeruginosa, L-Salt", "setting": "[6]; ATCC 27853, 3 h", "result": 5.8, "unit": "µM"}, {"measurement": "MIC, K. oxytoca, H-Salt", "setting": "[7]; ATCC 49131, 3 h", "result": 5.4, "unit": "µM"}, {"measurement": "MIC, K. oxytoca, L-Salt", "setting": "[7]; ATCC 49131, 3 h", "result": 2.2, "unit": "µM"}, {"measurement": "MIC, M. luteus, H-Salt", "setting": "[8]; ATCC 49, 3 h", "result": 8.8, "unit": "µM"}, {"measurement": "MIC, M. luteus, L-Salt", "setting": "[8]; ATCC 49, 3 h", "result": 3.1, "unit": "µM"}, {"measurement": "MIC, E. faecalis, H-Salt", "setting": "[9]; ATCC 29212, 3 h", "result": "> 500", "unit": "µM"}, {"measurement": "MIC, E. faecalis, L-Salt", "setting": "[9]; ATCC 29212, 3 h", "result": 51.6, "unit": "µM"}]}
